A value given as a limit tells only on which side of the number the result lay.

One assay concerns the target T1, human CXCR3 (N-delta 4) (Homo sapiens, UniProt P49682).
T1 construct: CD8 leader (N); Flag tag; expressed in transfected cells; membranes
T1 sequence (P49682 5-368 limits assumed): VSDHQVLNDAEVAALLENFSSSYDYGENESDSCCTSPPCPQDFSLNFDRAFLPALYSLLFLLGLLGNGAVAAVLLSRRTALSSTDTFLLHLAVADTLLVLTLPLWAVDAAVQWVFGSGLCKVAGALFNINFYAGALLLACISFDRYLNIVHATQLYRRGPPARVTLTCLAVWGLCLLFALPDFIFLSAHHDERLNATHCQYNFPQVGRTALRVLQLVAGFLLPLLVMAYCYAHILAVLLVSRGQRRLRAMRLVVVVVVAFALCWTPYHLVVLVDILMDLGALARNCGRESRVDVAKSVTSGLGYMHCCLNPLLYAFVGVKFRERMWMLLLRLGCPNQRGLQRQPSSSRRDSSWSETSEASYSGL
Kind of assay: Human CXCR3 (N-delta 4) Scintillation Proximity Assay (SPA), [125I] IP-10 binding. The following applies: IC50 rating; [125I] IP-10 displacement, Ba/F3-hCXCR3 (N-delta 4) membranes. From the text: The inventive compounds can readily be evaluated to determine activity at The CXCR3 receptors by known methods, such as, for example, Development of Human CXCR3 (N-delta 4) Binding Assay.
Cloning and Expression of Human CXCR3 (N-Delta 4):
The DNA encoding human CXCR3 was cloned by PCR using human genomic DNA (Promega, Madison, Wis.) as a template. The PCR primers were designed based on the published sequence of human orphan receptor GPR9 (1) with incorporated restriction sites, a Kozak consensus sequence, CD8 leader and Flag tag. The PCR product was subcloned into the mammalian expression vector pME18Sneo, a derivative of the SR-alpha expression vector (designated as pME18Sneo-hCXCR3 (N-delta 4).
IL-3-dependent mouse pro-B cells Ba/F3 were transfected by electroporation in 0.4 ml Dulbecco's PBS containing 4×10^6 cells with 20 μg of pME18Sneo-hCXCR3 (N-delta 4) plasmid DNA. Cells were pulsed at 400 Volts, 100 OHMs, 960 μFd. The transfected cells were under selection with 1 mg/ml G418 (Life Technologies, Gaithersburg, Md.). G418-resistant Ba/F3 clones were screened for CXCR3 expression by specific binding of [^125I] IP-10 (NEN Life Science Products, Boston, Mass.).
Preparation of Ba/F3-hCXCR3 (N-Delta 4) Membranes
Ba/F3 cells expressing human CXCR3 (N-delta 4) were pelleted and resuspended in the lysis buffer containing 10 mM HEPES, pH 7.5 and Complete® protease inhibitors (1 tablet per 100 ml) (Boehringer Mannheim, Indianapolis, Ind.) at a cell density of 20×10^6 cells per ml. After 5 minutes incubation on ice, cells were transferred to 4639 cell disruption bomb (Parr Instrument, Moline, Ill.) and applied with 1,500 psi of nitrogen for 30 minutes on ice. Large cellular debris was removed by centrifugation at 1,000× g. Cell membrane in the supernatant was sedimented at 100,000× g. The membrane was resuspended in the lysis buffer supplemented with 10% sucrose and stored at −80° C. Total protein concentration of the membrane was determined by BCA method from Pierce (Rockford, Ill.).
Human CXCR3 (N-Delta 4) Scintillation Proximity Assay (SPA)
For each assay point, 2 μg of membrane was preincubated for 1 hr with 300 μg wheat germ agglutinin (WGA) coated SPA beads (Amersham, Arlington Heights, Ill.) in the binding buffer (50 mM HEPES, 1 mM CaCl2, 5 mM MgCl2, 125 mM NaCl, 0.002% NaN3, 1.0% BSA) at room temperature. The beads were spun down, washed once, resuspended in the binding buffer and transferred to a 96-well Isoplate (Wallac, Gaithersburg, Md.). 25 pM of [^125I] IP-10 with tested compounds in a series of titration were added to start the reaction. After 3 hr reaction at room temperature, the amount of [^125I] IP-10 bound to the SPA beads was determined with a Wallac 1450 Microbeta counter.
(In general: Scintillation proximity formats need no separation of bound from free tracer.)
A word on the IC50: it is the concentration that gives 50% inhibition. Low readings indicate higher potency, high ones lower potency. For the molecule `CC[C@H]1CN(c2ncc(-c3ncc[nH]3)cc2Cl)CCN1C1CCN(Cc2ccc(Cl)cc2)CC1` [Compound 1], the IC50 is less than 25 nM.

`CC[C@H]1CN(c2ncc(-c3ncc[nH]3)cc2Cl)CCN1[C@H]1CCN(Cc2ccc(Cl)cc2C(=O)NC)C[C@@H]1O` [Compound 172]: the IC50 is greater than 100 nM.

As to `CC[C@H]1CN(c2ncc(-c3ncc[nH]3)cc2Cl)CCN1C1CCN(Cc2ccc(-n3cncn3)cc2)CC1` [Compound 76], the IC50 was less than 25 nM.

`CC[C@H]1CN(c2ncc(-c3ncc[nH]3)cc2Cl)CCN1C1CCN(Cc2ccc(Cl)cc2-c2nnn[nH]2)CC1` [Compound 52] showed a 50% inhibitory concentration (IC50) of less than 25 nM.

`CC[C@H]1CN(c2ncc(-c3ncc[nH]3)cc2Cl)CCN1C1CCN(Cc2ccc(Cl)cc2C(N)=O)CC1` [Compound 9]: the IC50 is less than 25 nM.

`CC[C@H]1CN(c2ncc(-c3ncc[nH]3)cc2Cl)CCN1C1(C)CCN(Cc2ccc(Cl)cc2C(=O)OC)CC1` [Compound 151]: the 50% inhibitory concentration (IC50) is greater than 100 nM.

The molecule `CC[C@H]1CN(c2ncc(-c3nnc(C)o3)cc2Cl)CCN1C1CCN(C(=O)c2ccc(Br)cc2)CC1` [Compound 120] yielded a 50% inhibitory concentration (IC50) of 25 to 100 nM.

As to `CC[C@H]1CN(c2ncc(-c3ncc[nH]3)cc2Cl)CCN1C1CCN(C(=O)c2ccc(C#CC(C)(C)NC(=O)OC(C)(C)C)cc2)CC1` [Compound 142], the IC50 was greater than 100 nM.

For `CC[C@H]1CN(c2ncc(-c3ncc[nH]3)cc2Cl)CCN1C1CCN([C@H](C(=O)NCC2CC2)c2ccc(Cl)cc2)CC1` [Compound 159], the IC50 is greater than 100 nM.

Take `CC[C@H]1CN(c2ncc(-c3ncc[nH]3)cc2Cl)CCN1C1CCN(Cc2ccc(C#CC(C)(C)NC(=O)OC(C)(C)C)cc2)CC1` [Compound 101]: the IC50 was less than 25 nM.

`CC[C@H]1CN(c2ncc(-c3ncc[nH]3)cc2Cl)CCN1C1CCN(C(=O)c2ccc(C(C)=O)cc2)CC1` [Compound 111] registered a half-inhibitory concentration (IC50) of 25 to 100 nM.

Regarding `CC[C@H]1CN(c2ncc(-c3ncc[nH]3)cc2Cl)CCN1C1CCN([C@@H](C(=O)NC2CC2)c2ccc(Cl)cc2)CC1` [Compound 36], the IC50 was less than 25 nM.

In turn, `CC[C@H]1CN(c2ncc(C3=NCCN3C(=O)c3ccc(Cl)cc3)cc2Cl)CCN1C1CCN(C(=O)c2ccc(Cl)cc2)CC1` [Compound 146] came in with a 50% inhibitory concentration (IC50) greater than 100 nM.

`CC[C@H]1CN(c2ncc(-c3nnc(COC(C)=O)o3)cc2Cl)CCN1C1CCN(Cc2ccc(Cl)cc2F)CC1` [Compound 84] displayed an IC50 of less than 25 nM.

The molecule `CC[C@H]1CN(c2ncc(C3=NCCN3)cc2Cl)CCN1C1CCN(Cc2ccc(OC(F)(F)F)cc2)CC1` [Compound 12] gave an IC50 of less than 25 nM.

`CC[C@H]1CN(c2ncc(-c3ncc[nH]3)cc2Cl)CCN1C1CCN(C(=O)c2ccc(-n3c(C)ccc3C)cc2)CC1` [Compound 136] returned an IC50 greater than 100 nM.

Regarding `CC[C@H]1CN(c2ncc(C3=NCCN3)cc2Cl)CCN1C1CCN(Cc2ccc(Cl)cc2F)CC1` [Compound 26], the IC50 was less than 25 nM.

The molecule `CC[C@H]1CN(c2ncc(-c3nnc(C(C)(C)OC(C)=O)o3)cc2Cl)CCN1C1CCN(Cc2ccc(Cl)cc2F)CC1` [Compound 141] gave an IC50 greater than 100 nM.

In the case of `CC[C@H]1CN(c2ncc(-c3ncc[nH]3)cc2Cl)CCN1C1CCN(Cc2c(F)cc(F)cc2F)CC1` [Compound 49], the IC50 was less than 25 nM.

For `CC[C@H]1CN(c2ncc(-c3ncc[nH]3)cc2Cl)CCN1C1CCN(Cc2ccc(Cl)cc2C(=O)NC)CC1` [Compound 53], the IC50 was less than 25 nM.

`CC[C@H]1CN(c2ncc(-c3ncc[nH]3)cc2Cl)CCN1C1CCN(Cc2ccc(C#CC(C)(C)O)cc2)CC1` [Compound 23] came in with an IC50 of less than 25 nM.

`CC[C@H]1CN(c2ncc(C3=NCCN3)cc2Cl)CCN1C1CCN(C(CO)c2ccc(Cl)cc2)CC1` (stereo partly drawn) [Compound 15] displayed an IC50 of less than 25 nM.

`CC[C@H]1CN(c2ncc(-c3ncc[nH]3)cc2Cl)CCN1C1CCN(Cc2ccc(Cl)cc2C(=O)O)CC1` [Compound 43] returned an IC50 of less than 25 nM.

`CC[C@H]1CN(c2ncc(-c3n[nH]c(=O)[nH]3)cc2Cl)CCN1C1CCN(Cc2ccc(Cl)cc2F)CC1` [Compound 88]: the IC50 is less than 25 nM.

As to `CC[C@H]1CN(c2ncc(C3=NCCN3)cc2Cl)CCN1C1CCN(C(=O)c2ccc(Cl)cc2C#N)CC1` [Compound 82], the IC50 was less than 25 nM.

The molecule `CC[C@H]1CN(c2ncc(-c3ncc[nH]3)cc2Cl)CCN1C1CCN(Cc2ccc(C#CC(C)(C)NS(=O)(=O)NC(=O)OC(C)(C)C)cc2)CC1` [Compound 143] registered an IC50 greater than 100 nM.

Turning to `CC[C@H]1CN(c2ncc(-c3ncc[nH]3)cc2Cl)CCN1C1CCN(C(=O)c2ccc(C#CC(C)(C)NS(N)(=O)=O)cc2)CC1` [Compound 168], the IC50 is greater than 100 nM.

For `CC[C@H]1CN(c2ncc(C3=NCCN3)cc2Cl)CCN1C1CCN(Cc2ccc(C#CC(C)(C)NS(=O)(=O)NC(=O)OC(C)(C)C)cc2)CC1` [Compound 147], the IC50 was greater than 100 nM.

`CC[C@H]1CN(c2ncc(-c3nccn3C(=O)c3ccc(Cl)cc3)cc2Cl)CCN1C1CCN(C(=O)c2ccc(Cl)cc2)CC1` [Compound 55] came in with an IC50 of less than 25 nM.

`CC[C@H]1CN(c2ncc(C3=NCCN3)cc2Cl)CCN1C1CCN(Cc2ccc(Cl)cc2C(C)(C)O)CC1` [Compound 44] displayed an IC50 of less than 25 nM.

`CC[C@H]1CN(c2ncc(-c3ncc[nH]3)cc2Cl)CCN1C1CCN([C@@H](CO)c2ccc(Cl)cc2)CC1` [Compound 10]: the IC50 is less than 25 nM.

Turning to `CC[C@H]1CN(c2ncc(-c3nnc[nH]3)cc2Cl)CCN1C1CCN(Cc2ccc(Cl)cc2F)CC1` [Compound 69], the half-inhibitory concentration (IC50) is less than 25 nM.

As for `CC[C@H]1CN(c2ncc(-c3ncc[nH]3)cc2Cl)CCN1C1CCN(Cc2ccc(Cl)cc2C#N)CC1` [Compound 33], the IC50 was less than 25 nM.

`CC[C@H]1CN(c2ncc(-c3ncc[nH]3)cc2Cl)CCN1C1CCN(CCC(=O)c2ccc(Cl)cc2)CC1` [Compound 95] yielded an IC50 of less than 25 nM.

Turning to `CC[C@H]1CN(c2ncc(-c3ncc[nH]3)cc2Cl)CCN1C1CCN(Cc2ccc(Cl)cc2-c2n[nH]c(=O)o2)CC1` [Compound 57], the IC50 was less than 25 nM.

The molecule `CC[C@H]1CN(c2ncc(-c3ncc[nH]3)cc2Cl)CCN1C1CCN(Cc2ccc(Cl)cc2C(=O)NN)CC1` [Compound 60] came in with an IC50 of less than 25 nM.

`CC[C@H]1CN(c2ncc(-c3ncc[nH]3)cc2Cl)CCN1C1CCN(C(=O)c2ccc(C#CCOC)cc2)CC1` [Compound 92] yielded an IC50 of less than 25 nM.

Turning to `CC[C@H]1CN(c2ncc(-c3ncc[nH]3)cc2Cl)CCN1C1CCN(Cc2ccc(-c3ccccc3)cc2)CC1` [Compound 37], the IC50 was less than 25 nM.

Molecule `CC[C@H]1CN(c2ncc(-c3ncc[nH]3)cc2Cl)CCN1C1CCN(CCCCc2ccc(Cl)cc2)CC1` [Compound 103] showed an IC50 of 25 to 100 nM.

Regarding `CC[C@H]1CN(c2ncc(-c3ncc[nH]3)cc2Cl)CCN1C1CCN([C@@H](C(=O)NC)c2ccc(Cl)cc2)CC1` [Compound 66], the IC50 was less than 25 nM.

In turn, `CC[C@H]1CN(c2ncc(C3=NCCN3)cc2Cl)CCN1C1CCN(Cc2ccc(C3CC3CO)cc2)CC1` (stereo partly drawn) [Compound 153] gave an IC50 greater than 100 nM.

Turning to `CC[C@H]1CN(c2ncc(-c3ncc[nH]3)cc2Cl)CCN1C1CCN(C(=O)c2ccc(-n3cncn3)nc2)CC1` [Compound 112], the IC50 is 25 to 100 nM.

The molecule `CC[C@H]1CN(c2ncc(-c3ncc[nH]3)cc2Cl)CCN1C1CCN(C(=O)c2ccc(Cl)cc2)CC1` [Compound 47] showed an IC50 of less than 25 nM.

In turn, `CC[C@H]1CN(c2ncc(-c3ncc[nH]3)cc2Cl)CCN1C1CCN(Cc2ccc(C(N)=O)cc2)CC1` [Compound 148] returned an IC50 greater than 100 nM.

Still in this assay, the particulars now being: [125I] IP-10 displacement, Ba/F3-hCXCR3 (N-delta 4) membranes.
In turn, `CC[C@H]1CN(c2ncc(-c3ncc[nH]3)cc2Cl)CCN1C1CCN(Cc2ccc(Cl)cc2)CC1` [Compound 1] registered an IC50 of 0.2 nM.
